In EP0610377B1, “TRI-SUBSTITUTED TETRAHYDROFURAN ANTIFUNGALS” (SCHERING CORPORATION, priority 1991, dated 1993):

What was measured:
Type in all cases: in vivo
[1] = tested on: C. albicans C-65; experiment: Candida systemic model in normal and compromised CF1 mice infected with C. albicans C-65, oral treatment; settings: for % S (Percent Survival): day 4 post-infection; for CFUs (GM): day 4, geometric mean of the logarithms of CFU in the kidneys
[2] = tested on: Aspergillus flavus; experiment: Aspergillus flavus pulmonary infection model in compromised mice, oral treatment; settings: 18 days post infection; for %SURVIVAL: compromised CF-1 mice; for %ANIMALS NEG: negative = <10 colonies
[3] = tested on: Aspergillus flavus; experiment: as above; settings: 18 days post infection; for CFU-GEO MEAN OF SURVIVORS: geometric mean of the logarithm of CFU remaining in the lung
[4] = 33 mg/kg PO once a day for 4 days
[5] = 66 mg/kg PO once a day for 4 days
[6] = 100 mg/kg PO once a day for 4 days

Compound: CC[C@@H](C)n1ncn(-c2ccc(N3CCN(c4ccc(OC[C@@H]5CO[C@@](Cn6cncn6)(c6ccc(F)cc6F)C5)cc4)CC3)cc2)c1=O [Example 23]
- % S (Percent Survival) ([1]; 600 Rads Mice (compromised), 10 MPK PO in PEG-200, 1/day x 4 days): 0%
- CFUs (GM) ([1]; 600 Rads Mice (compromised), 10 MPK PO in PEG-200): 9.00
- % S (Percent Survival) ([1]; 600 Rads Mice (compromised), 25 MPK PO in PEG-200, 1/day x 4 days): 20%
- CFUs (GM) ([1]; 600 Rads Mice (compromised), 25 MPK PO in PEG-200): 8.65
- % S (Percent Survival) ([1]; 600 Rads Mice (compromised), 50 MPK PO in PEG-200, 1/day x 4 days): 30%
- CFUs (GM) ([1]; 600 Rads Mice (compromised), 50 MPK PO in PEG-200): 7.33
- % S (Percent Survival) ([1]; 600 Rads Mice (compromised), 100 MPK PO in PEG-200, 1/day x 4 days): 50%
- CFUs (GM) ([1]; 600 Rads Mice (compromised), 100 MPK PO in PEG-200): 6.43
- % S (Percent Survival) ([1]; Normal Mice, 1 MPK PO in PEG-200, 1/day x 4 days): 0%
- CFUs (GM) ([1]; Normal Mice, 1 MPK PO in PEG-200): 9.00
- % S (Percent Survival) ([1]; Normal Mice, 10 MPK PO in PEG-200, 1/day x 4 days): 30%
- CFUs (GM) ([1]; Normal Mice, 10 MPK PO in PEG-200): 7.12
- % S (Percent Survival) ([1]; Normal Mice, 25 MPK PO in PEG-200, 1/day x 4 days): 60%
- CFUs (GM) ([1]; Normal Mice, 25 MPK PO in PEG-200): 5.74
- % S (Percent Survival) ([1]; Normal Mice, 50 MPK PO in PEG-200, 1/day x 4 days): 90%
- CFUs (GM) ([1]; Normal Mice, 50 MPK PO in PEG-200): 4.69
- %SURVIVAL [2, 4]: 10%
- %ANIMALS NEG [2, 4]: 0%
- %SURVIVAL [2, 5]: 10%
- %ANIMALS NEG [2, 5]: 0%
- %SURVIVAL [2, 6]: 70%
- %ANIMALS NEG [2, 6]: 10%
- %SURVIVAL ([3]; 33 mg/kg PO [3RX/DAY] for 4 days, compromised CF-1 mice): 60%
- CFU-GEO MEAN OF SURVIVORS ([3]; 33 mg/kg PO [3RX/DAY] for 4 days): 1.08
- %ANIMALS NEG ([3]; 33 mg/kg PO [3RX/DAY] for 4 days, negative = <10 colonies): 10%
- CFU-GEO MEAN OF SURVIVORS [3, 6]: 1.85
